From patent publication US8889676B2, “3-ureidoisoquinolin-8-yl derivatives” (Actelion Pharmaceuticals Ltd., priority 2011, dated 2014)
In brackets after ≈: the same amount, converted by molar mass.

Each compound was assayed on S. pneumoniae ATCC 49619 (assay: Minimal inhibitory concentration (MIC) by broth microdilution (CLSI M7-A7)). Conditions: Streptococcus pneumoniae, ATCC49619; cation-adjusted Mueller Hinton Broth supplemented with 3% (v/v) lysed horse blood; microdilution method.
Format: cell-based, Streptococcus pneumoniae
How it was run: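 Broth microdilution per CLSI M7-A7 in cation-adjusted Mueller-Hinton broth with 3% (v/v) lysed horse blood for S. pneumoniae. MIC in mg/l.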

| MIC | Compound |
| --- | --- |
| 0.5 µg/mL | C#CCOC(=O)NCc1ccc(-c2ccc(CO)cc2)c2cc(NC(=O)NCC)ncc12.Cl [Example 143, [3-(3-ethyl-ureido)-5-(4-hydroxymethyl-phenyl)-isoquinolin-8-ylmethyl]-carbamic acid prop-2-ynyl ester hydrochloride] |
| 0.5 µg/mL | C#CCOC(=O)NCc1ccc(-c2ccnc(N)c2)c2cc(NC(=O)NCC)ncc12.Cl [Example 144, [5-(2-amino-pyridin-4-yl)-3-(3-ethyl-ureido)-isoquinolin-8-ylmethyl]-carbamic acid prop-2-ynyl ester hydrochloride] |
| 4 µg/mL (≈ 8.39 µM) | CCNC(=O)Nc1cc2c(-c3ccncc3)ccc(CNC(=O)CCCN3CCOCC3)c2cn1 [Example 147, N-[3-(3-ethyl-ureido)-5-pyridin-4-yl-isoquinolin-8-ylmethyl]-4-morpholin-4-yl-butyramide] |
| 4 µg/mL (≈ 8.89 µM) | CCNC(=O)Nc1cc2c(Cl)ccc(CNC(=O)OCCCN3CCOCC3)c2cn1 [Example 148, [5-chloro-3-(3-ethyl-ureido)-isoquinolin-8-ylmethyl]-carbamic acid 3-morpholin-4-yl-propyl ester] |
| 4 µg/mL (≈ 9.23 µM) | CCNC(=O)Nc1cc2c(F)ccc(CNC(=O)OCCCN3CCOCC3)c2cn1 [Example 149, [3-(3-ethyl-ureido)-5-fluoro-isoquinolin-8-ylmethyl]-carbamic acid 3-morpholin-4-yl-propyl ester] |
| 1 µg/mL (≈ 2.9 µM) | C#CCOC(=O)NCc1ccc(F)c2cc(NC(=O)NCC)ncc12 [Example 150, [3-(3-ethyl-ureido)-5-fluoro-isoquinolin-8-ylmethyl]-carbamic acid prop-2-ynyl ester] |
| 2 µg/mL (≈ 5.49 µM) | CCNC(=O)Nc1cc2c(F)ccc(CNC(=O)OCCOC)c2cn1 [Example 151, [3-(3-ethyl-ureido)-5-fluoro-isoquinolin-8-ylmethyl]-carbamic acid 2-methoxy-ethyl ester] |
| 1 µg/mL (≈ 2.17 µM) | CCNC(=O)Nc1cc2c(-c3ccncc3)ccc(CNC(=O)OCCc3cnn[nH]3)c2cn1 [Example 152, [3-(3-ethyl-ureido)-5-pyridin-4-yl-isoquinolin-8-ylmethyl]-carbamic acid 2-(3H-[1,2,3]triazol-4-yl)-ethyl ester] |
| 1 µg/mL (≈ 2.65 µM) | CCNC(=O)Nc1cc2c(-c3ccnc(C)c3)ccc(CNC(C)=O)c2cn1 [Example 153, N-[3-(3-ethyl-ureido)-5-(2-methyl-pyridin-4-yl)-isoquinolin-8-ylmethyl]-acetamide] |
| 0.5 µg/mL (≈ 1.24 µM) | CCNC(=O)Nc1cc2c(-c3ccnc(C)c3)ccc(CNC(=O)C3CC3)c2cn1 [Example 154, cyclopropanecarboxylic acid [3-(3-ethyl-ureido)-5-(2-methyl-pyridin-4-yl)-isoquinolin-8-ylmethyl]-amide] |
| 0.5 µg/mL (≈ 1.29 µM) | C#CC(=O)NCc1ccc(-c2ccnc(C)c2)c2cc(NC(=O)NCC)ncc12 [Example 155, propynoic acid [3-(3-ethyl-ureido)-5-(2-methyl-pyridin-4-yl)-isoquinolin-8-ylmethyl]-amide] |
| 0.5 µg/mL (≈ 1.16 µM) | CCNC(=O)Nc1cc2c(-c3ccnc(C)c3)ccc(CNC(=O)c3ncc[nH]3)c2cn1 [Example 156, 1H-imidazole-2-carboxylic acid [3-(3-ethyl-ureido)-5-(2-methyl-pyridin-4-yl)-isoquinolin-8-ylmethyl]-amide] |
| 1 µg/mL (≈ 2.37 µM) | CCNC(=O)Nc1cc2c(-c3ccnc(C)c3)ccc(CNC(=O)CCOC)c2cn1 [Example 157, N-[3-(3-ethyl-ureido)-5-(2-methyl-pyridin-4-yl)-isoquinolin-8-ylmethyl]-3-methoxy-propionamide] |
| 0.5 µg/mL (≈ 1.2 µM) | C#CCOC(=O)NCc1ccc(-c2ccnc(C)c2)c2cc(NC(=O)NCC)ncc12 [Example 158, [3-(3-ethyl-ureido)-5-(2-methyl-pyridin-4-yl)-isoquinolin-8-ylmethyl]-carbamic acid prop-2-ynyl ester] |
| 1 µg/mL (≈ 2.97 µM) | CCNC(=O)Nc1cc2c(Cl)ccc(CNC(=O)OC)c2cn1 [Example 159, [5-chloro-3-(3-ethyl-ureido)-isoquinolin-8-ylmethyl]-carbamic acid methyl ester] |
| 2 µg/mL (≈ 4.77 µM) | CCNC(=O)Nc1cc2c(-c3ccnc(C4CC4)c3)ccc(CNC(=O)OC)c2cn1 [Example 160, [5-(2-cyclopropyl-pyridin-4-yl)-3-(3-ethyl-ureido)-isoquinolin-8-ylmethyl]-carbamic acid methyl ester] |
| 0.5 µg/mL (≈ 1.26 µM) | CCNC(=O)Nc1cc2c(-c3ccnc(F)c3)ccc(CNC(=O)OC)c2cn1 [Example 161, [3-(3-ethyl-ureido)-5-(2-fluoro-pyridin-4-yl)-isoquinolin-8-ylmethyl]-carbamic acid methyl ester] |
| 1 µg/mL (≈ 2.44 µM) | CCNC(=O)Nc1cc2c(-c3ccnc(OC)c3)ccc(CNC(=O)OC)c2cn1 [Example 162, [3-(3-ethyl-ureido)-5-(2-methoxy-pyridin-4-yl)-isoquinolin-8-ylmethyl]-carbamic acid methyl ester] |

| MIC | Compound |
| --- | --- |
| 0.5 µg/mL (≈ 1.27 µM) | CCNC(=O)Nc1cc2c(-c3ccnc(N)c3)ccc(CNC(=O)OC)c2cn1 [Example 163, [5-(2-amino-pyridin-4-yl)-3-(3-ethyl-ureido)-isoquinolin-8-ylmethyl]-carbamic acid methyl ester] |
| 1 µg/mL (≈ 2.45 µM) | CCNC(=O)Nc1cc2c(-c3cc(C)nc(C)c3)ccc(CNC(=O)OC)c2cn1 [Example 164, [5-(2,6-dimethyl-pyridin-4-yl)-3-(3-ethyl-ureido)-isoquinolin-8-ylmethyl]-carbamic acid methyl ester] |
| 4 µg/mL (≈ 8.94 µM) | CCNC(=O)Nc1cc2c(-c3ccnc(C(F)(F)F)c3)ccc(CNC(=O)OC)c2cn1 [Example 165, [3-(3-ethyl-ureido)-5-(2-trifluoromethyl-pyridin-4-yl)-isoquinolin-8-ylmethyl]-carbamic acid methyl ester] |
| 2 µg/mL (≈ 4.72 µM) | CCNC(=O)Nc1cc2c(-c3ccnc(OCC)c3)ccc(CNC(=O)OC)c2cn1 [Example 166, [5-(2-ethoxy-pyridin-4-yl)-3-(3-ethyl-ureido)-isoquinolin-8-ylmethyl]-carbamic acid methyl ester] |
| 8 µg/mL (≈ 20.2 µM) | CCNC(=O)Nc1cc2c(-c3ccnc(O)c3)ccc(CNC(=O)OC)c2cn1 [Example 168, [3-(3-ethyl-ureido)-5-(2-hydroxy-pyridin-4-yl)-isoquinolin-8-ylmethyl]-carbamic acid methyl ester] |
| 4 µg/mL (≈ 8.61 µM) | CCNC(=O)Nc1cc2c(-c3ccnc(N4CCOCC4)c3)ccc(CNC(=O)OC)c2cn1 [Example 169, [3-(3-ethyl-ureido)-5-(2-morpholin-4-yl-pyridin-4-yl)-isoquinolin-8-ylmethyl]-carbamic acid methyl ester] |
| 1 µg/mL (≈ 2.45 µM) | CCNC(=O)Nc1cc2c(-c3ccnc(CC)c3)ccc(CNC(=O)OC)c2cn1 [Example 170, [5-(2-ethyl-pyridin-4-yl)-3-(3-ethyl-ureido)-isoquinolin-8-ylmethyl]-carbamic acid methyl ester] |
| 4 µg/mL (≈ 8.92 µM) | CCNC(=O)Nc1cc2c(-c3ccnc(N4CCCC4)c3)ccc(CNC(=O)OC)c2cn1 [Example 171, [3-(3-ethyl-ureido)-5-(2-pyrrolidin-1-yl-pyridin-4-yl)-isoquinolin-8-ylmethyl]-carbamic acid methyl ester] |
| 1 µg/mL (≈ 2.41 µM) | CCNC(=O)Nc1cc2c(-c3cc(F)nc(F)c3)ccc(CNC(=O)OC)c2cn1 [Example 172, [5-(2,6-difluoro-pyridin-4-yl)-3-(3-ethyl-ureido)-isoquinolin-8-ylmethyl]-carbamic acid methyl ester] |
| 4 µg/mL (≈ 9.14 µM) | CCNC(=O)Nc1cc2c(-c3ccnc(OC(C)C)c3)ccc(CNC(=O)OC)c2cn1 [Example 173, [3-(3-ethyl-ureido)-5-(2-isopropoxy-pyridin-4-yl)-isoquinolin-8-ylmethyl]-carbamic acid methyl ester] |
| 4 µg/mL (≈ 8.65 µM) | CCNC(=O)Nc1cc2c(-c3ccnc(N4CCCCC4)c3)ccc(CNC(=O)OC)c2cn1 [Example 174, [3-(3-ethyl-ureido)-5-(3,4,5,6-tetrahydro-2H-[1,2′]bipyridinyl-4′-yl)-isoquinolin-8-ylmethyl]-carbamic acid methyl ester] |
| 0.5 µg/mL (≈ 1.27 µM) | CCNC(=O)Nc1cc2c(-c3ccnc(C)c3)ccc(CNC(=O)OC)c2cn1 [Example 175, [3-(3-ethyl-ureido)-5-(2-methyl-pyridin-4-yl)-isoquinolin-8-ylmethyl]-carbamic acid methyl ester] |
| 1 µg/mL (≈ 2.3 µM) | CCNC(=O)Nc1cc2c(-c3ccnc(C)c3)ccc(CNC(=O)OC(C)(C)C)c2cn1 [Example 176, [3-(3-ethyl-ureido)-5-(2-methyl-pyridin-4-yl)-isoquinolin-8-ylmethyl]-carbamic acid tert-butyl ester] |
| 8 µg/mL (≈ 16.2 µM) | CCNC(=O)Nc1cc2c(-c3ccnc(CCC(N)=O)c3)ccc(CNC(=O)OCCOC)c2cn1 [Example 177, [5-[2-(2-carbamoyl-ethyl)-pyridin-4-yl]-3-(3-ethyl-ureido)-isoquinolin-8-ylmethyl]-carbamic acid 2-methoxy-ethyl ester] |
| 2 µg/mL (≈ 3.72 µM) | CCNC(=O)Nc1cc2c(-c3ccnc(CC(=O)OC(C)(C)C)c3)ccc(CNC(=O)OCCOC)c2cn1 [Example 178, (4-{3-(3-ethyl-ureido)-8-[(2-methoxy-ethoxycarbonylamino)-methyl]-isoquinolin-5-yl}-pyridin-2-yl)-acetic acid tert-butyl ester] |
| 8 µg/mL (≈ 17.1 µM) | CCNC(=O)Nc1cc2c(-c3ccnc(C(N)=O)c3)ccc(CNC(=O)OCCOC)c2cn1 [Example 179, [5-(2-carbamoyl-pyridin-4-yl)-3-(3-ethyl-ureido)-isoquinolin-8-ylmethyl]-carbamic acid 2-methoxy-ethyl ester] |
| 8 µg/mL (≈ 19.6 µM) | CCNC(=O)Nc1cc2c(-c3ccnc(C)c3)ccc(CN(C)C(=O)OC)c2cn1 [Example 180, [3-(3-ethyl-ureido)-5-(2-methyl-pyridin-4-yl)-isoquinolin-8-ylmethyl]-methyl-carbamic acid methyl ester] |

| Compound | MIC |
| --- | --- |
| CCNC(=O)Nc1cc2c(-c3ccnc(OC(C)(C)C)c3)ccc(CNC(=O)OC)c2cn1 [Example 167, [5-(2-tert-butoxy-pyridin-4-yl)-3-(3-ethyl-ureido)-isoquinolin-8-ylmethyl]-carbamic acid methyl ester] | 4 µg/mL (≈ 8.86 µM) |
